Here are results for two molecules from article PMC6768109, “A novel assay for measuring recombinant human lysophosphatidylcholine acyltransferase 3 activity” (FEBS Open Bio, 2019).

The target of series [1] is T1, recombinant human lysophosphatidylcholine acyltransferase 3 (rhLPCAT3) (Homo sapiens, UniProt Q6P1A2).
T1 construct: gene LPCAT3; human LPCAT3 (BC065194.1) with HRV 3C site and C-terminal Twin-strep-tag, expressed in Sf9 cells, purified in DDM
T1 sequence (Q6P1A2 2-487): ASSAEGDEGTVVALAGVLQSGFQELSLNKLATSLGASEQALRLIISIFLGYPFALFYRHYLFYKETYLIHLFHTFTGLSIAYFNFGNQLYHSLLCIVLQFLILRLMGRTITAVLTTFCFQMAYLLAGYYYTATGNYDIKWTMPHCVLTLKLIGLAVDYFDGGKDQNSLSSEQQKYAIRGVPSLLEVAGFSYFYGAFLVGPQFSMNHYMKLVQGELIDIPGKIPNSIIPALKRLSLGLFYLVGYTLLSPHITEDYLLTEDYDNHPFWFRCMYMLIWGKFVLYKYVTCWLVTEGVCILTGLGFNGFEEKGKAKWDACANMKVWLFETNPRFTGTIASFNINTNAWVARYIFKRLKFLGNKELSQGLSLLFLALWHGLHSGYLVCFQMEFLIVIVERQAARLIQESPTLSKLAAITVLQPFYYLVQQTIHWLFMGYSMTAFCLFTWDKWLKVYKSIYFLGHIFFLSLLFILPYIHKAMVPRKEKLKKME
Briefly: reversed-phase HPLC fluorescence assay of NBD-PC formation by purified rhLPCAT3. The format is biochemical.

Substrate in series [2]: CCCCC/C=C\C/C=C\C/C=C\C/C=C\CCCC(=O)SCCNC(=O)CCNC(=O)[C@H](O)C(C)(C)COP(=O)(O)OP(=O)(O)OC[C@H]1O[C@@H](n2cnc3c(N)ncnc32)[C@H](O)[C@@H]1OP(=O)(O)O
Briefly: bisubstrate kinetics (Km) of purified enzyme, reversed-phase HPLC with fluorescence detection. The format is biochemical, Homo sapiens.

Regarding `CCCOC(=O)c1ccc(N2C(=O)C(Cl)=C(Cl)C2=O)cc1` [TSI-10], in series [1], the IC50 was 174 ± 1.04 µM.

B1: recombinant human lysophosphatidylcholine acyltransferase 3 (rhLPCAT3) (Homo sapiens) (protein)
chain: ASSAEGDEGTVVALAGVLQSGFQELSLNKLATSLGASEQALRLIISIFLGYPFALFYRHYLFYKETYLIHLFHTFTGLSIAYFNFGNQLYHSLLCIVLQFLILRLMGRTITAVLTTFCFQMAYLLAGYYYTATGNYDIKWTMPHCVLTLKLIGLAVDYFDGGKDQNSLSSEQQKYAIRGVPSLLEVAGFSYFYGAFLVGPQFSMNHYMKLVQGELIDIPGKIPNSIIPALKRLSLGLFYLVGYTLLSPHITEDYLLTEDYDNHPFWFRCMYMLIWGKFVLYKYVTCWLVTEGVCILTGLGFNGFEEKGKAKWDACANMKVWLFETNPRFTGTIASFNINTNAWVARYIFKRLKFLGNKELSQGLSLLFLALWHGLHSGYLVCFQMEFLIVIVERQAARLIQESPTLSKLAAITVLQPFYYLVQQTIHWLFMGYSMTAFCLFTWDKWLKVYKSIYFLGHIFFLSLLFILPYIHKAMVPRKEKLKKME
notes: human LPCAT3 (BC065194.1) with HRV 3C site and C-terminal Twin-strep-tag, expressed in Sf9 cells, purified in DDM
Take B1: the Km in series [2] worked out at 11.03 ± 0.51 µM.
